Measured values as given in US11787772B2, “Carboxylic diarythiazepineamines as mixed mu- and delta-opioid receptor agonists” (THE TRUSTEES OF COLUMBIA UNIVERSITY IN THE CITY OF NEW YORK, priority 2017, dated 2023).
Structures can show the parent of a compound that is named as a salt. Where two headings read alike, the source gives them in different places.

Columns and labels:
[1] = target: T1, human mu opioid receptor (MOR) (Homo sapiens, UniProt P35372); test: BRET assay measuring G protein activation, agonist activity at human MOR; type: cell-based; conditions: for MOR potency relative to analogs lacking substitution at position 2: dihalo-substituted core
T1 construct: expressed in transfected cells; host or cells: HEK-293T
Protocol: (§1) The diarylthiazepinamine carboxylic acids (9) were tested for agonist activity at the human mu opioid receptor (MOR) and delta opioid receptor (DOR) using bioluminescence resonance energy transfer (BRET) assays measuring G protein activation as previously described (Table 1) (Rives, M.-L. et al. 2012; Negri, A. et al. 2013).
Human MOR cDNA was transfected alongside GααB with RLuc8 inserted at position 91 (GααB—RLuc8), Gβ1 (β1), and Gγ2 fused to the full-length mVenus at its N terminus (mVenus-γ2) into HEK-293T cells (5×10^6 cells/plate) in 10-cm dishes using PEI (Polysciences Inc.; Warrington, PA) in a 1:1 ratio diluted in Opti-MEM (Life Technologies Corp.; Grand Island, NY) to assay for G protein activation as described previously (Rives, M.-L. et al. 2012; Negri, A. et al. 2013). Cells were maintained in Dulbecco's Modified Eagle Medium (high glucose #11965; Life Technologies) supplemented with 10% FBS (Premium Select, Atlanta Biologicals; Atlanta, GA) and 100 U/mL penicillin and 100 μg/mL streptomycin (#15140, Life Technologies). After 24 hours the media was changed, and the experiment was performed 24 hours later (48 hours after transfection).
(§2) Transfected cells were dissociated and re-suspended in phosphate-buffered saline (PBS). Approximately 200,000 cells/well were added to a black-framed, white well 96-well plate (#60050; Perkin Elmer; Waltham, MA). The microplate was centrifuged and the cells were re-suspended in PBS. Then 5 μM of the luciferase substrate coelenterazine H was added to each well for 5 minutes. Following coelenterazine H addition, ligands were added and the BRET signal was measured at 5 minutes on a PHERAstar FS plate reader. Quantification of the BRET signal required calculating the ratio of the light emitted by the energy acceptor, mVenus (510-540 nm), over the light emitted by the energy donor, RLuc8 (485 nm). […] Dose response curves were fit using a three-parameter logistics equation in GraphPad Prism 6.
The additional diarylthiazepinamine carboxylic acids (9i, 9j, 9k, and 91) were tested for agonist activity at the human mu opioid receptor (MOR) using bioluminescence resonance energy transfer (BRET) assays measuring G protein activation (Table 2) as previously described (Rives, M.-L. et al. 2012; Negri, A. et al. 2013; Example 2 of the present application).

[2] = target: T2, human delta opioid receptor (DOR) (Homo sapiens, UniProt P41143); test: BRET assay measuring G protein activation, agonist activity at human DOR; type: cell-based
T2 construct: expressed in transfected cells
Protocol: as §1, §2

[3] = Solubility determination (Method A), neutral water; type: physicochemical; conditions: for solubility at 24 h: distilled water, thermodynamic from solid, neutral water, 20° C., Method A (24 h stirring), average of 2 independent trials, read-out: Aqueous Solubility (mg/mL @ 20° C.)
Protocol: (§3) A quantity of the appropriate compound sufficient to saturate the resulting solution was added to distilled water (0.50 mL) and the mixture was stirred vigorously for 24 h at room temperature (20° C.). The mixture was then centrifuged for 3 min. at 21,000×g and the stir bar was carefully removed. The mixture was then centrifuged again for 5 min. at 21,000×g and the supernatant was carefully removed by syringe and passed through a […] syringe filter. An aliquot (300 μL) of the filtered supernatant was concentrated in vacuo and the mass of the residual solids determined in order to calculate the solubility.

physchem = conditions: 25 °C, thermodynamic from solid
Protocol: Test compounds (4 mg) were added to 200 μL of one of the tested aqueous solutions (hereinafter—buffer): 100 mM aqueous HCl (pH 1) or 100 mM Na-phosphate buffer (pH 7). The obtained suspensions/solutions with the theoretical concentration of 20 mg/mL were further allowed to equilibrate at 25° C. on a thermostatic orbital shaker for 24 hours and then centrifuged at 6000 rpm for 4 minutes and filtered through HTS filter plates using a vacuum manifold. In parallel, compound dilutions in 50% acetonitrile/HCl and 30% acetonitrile/Na-phosphate buffer mixes were prepared to theoretical concentrations of 0 mg/mL (blank), 0.1 mg/mL, 0.2 mg/mL, and 0.4 mg/mL in duplicates to generate calibration curves falling within the optimum UV absorption range. The filtrates of test compounds were diluted 100-fold with acetonitrile-buffer mixtures before measuring. The filtered supernatant test samples were transferred to 96-well plates and measured for absorbance in the 200-550 nm range with 5 nm step increment. The concentrations of compounds in supernatants were calculated using the measured absorbance and the previously determined calibration curve. Proper absorbance wavelengths for calculations were selected for each compound manually based on absorbance maxima (absolute absorbance unit values for the minimum and maximum concentration points within 0-2.5 OD range).

male C57BL/6 mice = test: Analgesic activity in hot plate assay; type: in vivo, mouse; conditions: for ED50: Mus musculus, sc, hot plate 55° C., male C57BL/6 mice, tested at 15 post-injection
Protocol: Male C57BL/6 mice were timed for latency to jump on a hot-plate apparatus set to 55° C., using a 30 s cutoff to prevent tissue damage. Following a baseline test, animals were injected subcutaneously (s.c.) with escalating doses of drug and tested at […] (time of maximal effect). Dose-response curves were fit via nonlinear regression using GraphPad Prism (La Jolla, CA).

[4] = Solubility determination (Method B), neutral water; type: physicochemical; conditions: distilled water, thermodynamic from solid; neutral water, 20° C., Method B (2 h orbital shaker); read-out: Aqueous Solubility (mg/mL @ 20° C.)
Protocol: as §3, with “agitated on an orbital shaker” for “was stirred vigorously”, “2” for “24”, “centrifuged” for “centrifuged for 3 min. at 21,000×g and the stir bar was carefully removed. The mixture was then centrifuged again”

[5] = BRET G protein activation, HEK-293T cells, error ± SEM of 2 or more independent trials, read-out: Human MOR (EC50)
[6] = BRET G protein activation, error ± SEM of 2 or more independent trials, read-out: Human DOR (EC50)

T1 sequence (P35372 whole entry): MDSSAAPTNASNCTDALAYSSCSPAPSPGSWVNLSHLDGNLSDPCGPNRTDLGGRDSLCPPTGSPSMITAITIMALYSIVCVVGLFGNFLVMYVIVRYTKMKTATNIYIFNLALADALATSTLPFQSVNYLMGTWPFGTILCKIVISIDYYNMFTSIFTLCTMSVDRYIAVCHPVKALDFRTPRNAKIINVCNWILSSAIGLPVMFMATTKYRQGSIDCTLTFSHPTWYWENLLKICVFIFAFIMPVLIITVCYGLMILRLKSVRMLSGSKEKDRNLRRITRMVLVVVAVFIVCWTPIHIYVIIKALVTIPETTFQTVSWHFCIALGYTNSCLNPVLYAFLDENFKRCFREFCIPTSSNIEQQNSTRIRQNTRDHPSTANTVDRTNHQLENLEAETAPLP
T2 sequence (P41143 whole entry): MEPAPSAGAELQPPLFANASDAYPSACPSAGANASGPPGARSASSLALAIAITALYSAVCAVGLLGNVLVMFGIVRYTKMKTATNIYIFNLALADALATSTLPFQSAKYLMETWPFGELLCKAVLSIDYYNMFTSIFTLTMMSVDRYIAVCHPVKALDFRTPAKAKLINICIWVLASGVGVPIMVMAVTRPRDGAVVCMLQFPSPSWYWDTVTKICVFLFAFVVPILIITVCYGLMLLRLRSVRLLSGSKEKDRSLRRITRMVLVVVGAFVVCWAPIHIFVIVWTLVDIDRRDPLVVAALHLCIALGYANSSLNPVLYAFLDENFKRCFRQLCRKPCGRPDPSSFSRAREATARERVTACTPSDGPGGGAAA

Cc1ccc2c(c1)S(=O)(=O)N(C)c1ccccc1C2NCCCCCCC(=O)O (stereo not shown) [3-Methyl-substituted Analog, reference compound]
EC50 [1]: 890 nM
EC50 [2]: > 10000 nM

CCOC(=O)CCCCCCNC1c2ccccc2N(C)S(=O)(=O)c2cc(SC)ccc21 (stereo not shown) [Compound 8c, Ethyl 7-((6-methyl-3-(methylthio)-5,5-dioxido-6,11-dihydrodibenzo[c,f][1,2]thiazepin-11-yl)amino)heptanoate]
EC50 [1, 5]: 222 nM
Emax ([2]; BRET G protein activation): 70%
Human DOR agonist type (partial / full agonist) ([2]; BRET G protein activation): partial agonist
EC50 [2, 6]: 7000 nM

C#Cc1ccc2c(c1)S(=O)(=O)N(C)c1ccccc1C2NCCCCCCC(=O)O (stereo not shown) [Compound 9a, 7-((3-Ethynyl-6-methyl-5,5-dioxido-6,11-dihydrodibenzo [c,f][1,2]thiazepin-11-yl)amino)heptanoic acid]
EC50 [1, 5]: 53.3 ± 18 nM
EC50 [2, 6]: 5900 ± 300 nM

CN1c2ccccc2C(NCCCCCCC(=O)O)c2cc(F)c(Br)cc2S1(=O)=O (stereo not shown) [Compound 9b, 7-((3-Bromo-2-fluoro-6-methyl-5,5-dioxido-6,1-dihydrodibenzo [c,f][1,2]thiazepin-11-yl)amino) heptanoic acid hydrochloride salt]
EC50 [1]: 83.1 ± 5.7 nM
MOR potency relative to analogs lacking substitution at position 2 [1]: equipotent or more potent
EC50 [2]: 11500 ± 2200 nM
solubility at 24 h [3]: 9.8 mg/mL
Solubility relative to monohalo counterpart bromotianeptine ([3]; neutral unbuffered water): 2-3 fold
solubility (physchem; pH 1, simulated gastric fluid): 1100 µg/mL
solubility (physchem; pH 7, aqueous buffer): 840 µg/mL
ED50 (male C57BL/6 mice): 5.1 mg/kg
Analgesic activity in the mouse hot plate assay (male C57BL/6 mice; much higher potency than tianeptine): potent analgesics

CSc1ccc2c(c1)S(=O)(=O)N(C)c1ccccc1C2NCCCCCCC(=O)O (stereo not shown) [Compound 9c, 7-((6-Methyl-3-(methylthio)-5,5-dioxido-6,1l-dihydrodibenzo [c,f][1,2]thiazepin-11-yl)amino)heptanoic acid]
EC50 [1, 5]: 41.8 nM
Emax ([2]; BRET G protein activation): 51%
Human DOR Emax ([2]; BRET G protein activation): 51%
Human DOR agonist type (partial / full agonist) ([2]; BRET G protein activation): partial agonist
EC50 [2, 6]: 2060 nM
DOR Emax relative to the control agonist DPDPE ([2]; FIG. 1): lesser Emax than the control agonist DPDPE

CN1c2ccccc2C(NCCCCCCCC(=O)O)c2ccc(Br)cc2S1(=O)=O (stereo not shown) [Compound 9d, 8-((3-Bromo-6-methyl-5,5-dioxido-6,11-dihydrodibenzo [c,f][1,2]thiazepin-11-yl)amino) octanoic acid hydrochloride salt]
EC50 [1]: 56 ± 24 nM
EC50 [2]: 1700 ± 40 nM

CN1c2ccccc2C(NCCCCCCCCC(=O)O)c2ccc(I)cc2S1(=O)=O (stereo not shown) [Compound 9f, 9-((3-Iodo-6-methyl-5,5-dioxido-6,11-dihydrodibenzo [c,f][1,2]thiazepin-11-yl)amino) nonanoic acid hydrochloride salt]
EC50 [1]: 22 ± 14 nM
EC50 [2]: 530 ± 340 nM

CN1c2ccccc2C(NCCCCCCCCCCC(=O)O)c2ccc(I)cc2S1(=O)=O (stereo not shown) [Compound 9h, 11-((3-Iodo-6-methyl-5,5-dioxido-6,11-dihydrodibenzo [c,f][1,2]thiazepin-11-yl)amino)undecanoic acid hydrochloride salt]
EC50 [1]: 110 ± 29 nM
EC50 [2]: 700 ± 305 nM

CN1c2ccccc2C(NCCCCCCC(=O)O)c2cc(Cl)c(Cl)cc2S1(=O)=O.Cl (stereo not shown) [Compound 9i, 7-((2,3-dichloro-6-methyl-5,5-dioxido-6,11-dihydrodibenzo [c,f][1,2]thiazepin-11-yl)amino)heptanoic acid hydrochloride salt]
EC50 [1]: 172 nM
MOR potency relative to analogs lacking substitution at position 2 [1]: equipotent or more potent

CN1c2ccccc2C(NCCCCCCC(=O)O)c2cc(F)c(Cl)cc2S1(=O)=O.Cl (stereo not shown) [Compound 9j, 7-((3-chloro-2-fluoro-6-methyl-5,5-dioxido-6,11-dihydrodibenzo [c,f][1,2]thiazepin-11-yl)amino)heptanoic acid hydrochloride salt]
EC50 [1]: 129 nM
MOR potency relative to analogs lacking substitution at position 2 [1]: equipotent or more potent
solubility (physchem; pH 1, simulated gastric fluid): 5300 µg/mL
solubility (physchem; pH 7, aqueous buffer): 70 µg/mL

CN1c2ccccc2C(NCCCCC(=O)O)c2cc(F)c(Br)cc2S1(=O)=O.Cl (stereo not shown) [Compound 9l, 5-((3-bromo-2-fluoro-6-methyl-5,5-dioxido-6,11-dihydrodibenzo [c,f][1,2]thiazepin-11-yl)amino)pentanoic acid hydrochloride salt]
EC50 [1]: 45 nM
MOR potency relative to analogs lacking substitution at position 2 [1]: equipotent or more potent

CCOC(=O)CCCCCCNC1c2ccccc2N(C)S(=O)(=O)c2ccc(Cl)cc21 (stereo not shown) [Compound 15a, reference compound]
EC50 [1]: 4150 ± 930 nM

CCOC(=O)CCCCCCNC1c2ccccc2N(C)S(=O)(=O)c2ccccc21 (stereo not shown) [Compound 15c, reference compound]
EC50 [1]: 156 ± 84.7 nM

COCCCNC1c2ccccc2N(C)S(=O)(=O)c2ccc(Cl)cc21 (stereo not shown) [Compound 16a, reference compound]
EC50 [1, 5]: 16900 ± 5220 nM

COCCCNC1c2ccccc2N(C)S(=O)(=O)c2cc(Cl)ccc21 (stereo not shown) [Compound 16b, reference compound]
EC50 [1, 5]: 264 ± 85.3 nM

COCCCNC1c2ccccc2N(C)S(=O)(=O)c2ccccc21 (stereo not shown) [Compound 16c, reference compound]
EC50 [1, 5]: 2010 ± 700 nM

CN1c2ccccc2C(NCCCCCCC(=O)[O-])c2ccc(Cl)cc2S1(=O)=O.[Na+] (stereo not shown) [Tianeptine (Na salt), Tianeptine, reference compound]
ED50 (male C57BL/6 mice): 15 mg/kg

CN1c2ccccc2C(NCCCCCCC(=O)O)c2ccc(Br)cc2S1(=O)=O.Cl (stereo not shown) [bromotianeptine, reference compound]
solubility at 24 h [3]: 4.5 mg/mL
solubility (physchem; pH 1, simulated gastric fluid): < 100 µg/mL
solubility (physchem; pH 7, aqueous buffer): 620 µg/mL

CN1c2ccccc2C(NCCCCCCC(=O)O)c2ccc(I)cc2S1(=O)=O.Cl (stereo not shown) [iodotianeptine, reference compound]
solubility at 2 h [4]: 2.3 mg/mL
solubility (physchem; pH 1, simulated gastric fluid): < 100 µg/mL
solubility (physchem; pH 7, aqueous buffer): 150 µg/mL
